According to ChEMBL document CHEMBL3588813, “Antifungal Amphiphilic Aminoglycosides” (Medchemcomm, 2014):
Converted amounts (≈) assume the structure as drawn.

How the values were obtained:
Staphylococcus aureus [1] = assay: Antimicrobial activity against Staphylococcus aureus ATCC 25923 assessed as inhibition of bacterial growth incubated at 35 degC for 12 to 18 hrs; format: functional
Escherichia coli = assay: Antimicrobial activity against Escherichia coli ATCC 25922 assessed as inhibition of bacterial growth incubated at 35 degC for 12 to 18 hrs; format: functional
Staphylococcus aureus [2] = assay: Antimicrobial activity against methicillin-resistant Staphylococcus aureus ATCC 33591 assessed as inhibition of bacterial growth incubated at 35 degC for 12 to 18 hrs; format: functional
Enterococcus faecalis = assay: Antimicrobial activity against vancomycin-resistant Enterococcus faecalis ATCC 1299 assessed as inhibition of bacterial growth incubated at 35 degC for 12 to 18 hrs; format: functional
Pseudomonas aeruginosa = assay: Antimicrobial activity against Pseudomonas aeruginosa ATCC 27853 assessed as inhibition of bacterial growth incubated at 35 degC for 12 to 18 hrs; format: functional
Fusarium graminearum [3] = assay: Antimicrobial activity against Fusarium graminearum B4-5A using RPMI medium by microbroth dilution assay; format: functional
[4] = Induction of hemolysis in sheep erythrocytes incubated at 37 degC for 60 mins; format: cell-based, Ovis aries, Erythrocyte
Fusarium graminearum [5] = assay: Antimicrobial activity against Fusarium graminearum B4-5A using potato dextrose broth as growth medium and diluent; format: functional
Botrytis cinerea = assay: Antimicrobial activity against Botrytis cinerea using potato dextrose broth as growth medium and diluent; format: functional
Rhodotorula mucilaginosa = assay: Antimicrobial activity against Rhodotorula piliminae using potato dextrose broth as growth medium and diluent; format: functional

## CCCCCCc1cn(C[C@H]2O[C@@H](O[C@@H]3[C@@H](O)[C@H](N)C[C@H](N)[C@H]3O[C@H]3O[C@H](CN)[C@@H](O)[C@H](O)[C@H]3N)[C@H](O)[C@@H]2O[C@H]2O[C@@H](CN)[C@@H](O)[C@H](O)[C@H]2N)nn1
Staphylococcus aureus [1]
  MIC: 4 µg/mL (≈ 5.33 µM)
Escherichia coli
  MIC: 32 µg/mL (≈ 42.7 µM)

## CCCCCCCCCCCCCCCC(=O)NC[C@H]1O[C@@H](O[C@@H]2[C@@H](O)[C@H](N)C[C@H](N)[C@H]2O[C@H]2O[C@H](CN)[C@@H](O)[C@H](O)[C@H]2N)[C@H](O)[C@@H]1O[C@H]1O[C@@H](CN)[C@@H](O)[C@H](O)[C@H]1N
Staphylococcus aureus [1]
  MIC: 1 µg/mL (≈ 1.17 µM)
Staphylococcus aureus [2]
  MIC: 2 µg/mL (≈ 2.35 µM)
Escherichia coli
  MIC: 4 µg/mL (≈ 4.69 µM)
Enterococcus faecalis
  MIC: 4 µg/mL (≈ 4.69 µM)
Pseudomonas aeruginosa
  MIC: 4 µg/mL (≈ 4.69 µM)
Fusarium graminearum [3]
  MIC: 125 µg/mL (≈ 147 µM)
[4]
  IC90 at 1 h: > 1000 µg/mL

## CCCCCCCCCCCCCCCCCC(=O)NC[C@H]1O[C@@H](O[C@@H]2[C@@H](O)[C@H](N)C[C@H](N)[C@H]2O[C@H]2O[C@H](CN)[C@@H](O)[C@H](O)[C@H]2N)[C@H](O)[C@@H]1O[C@H]1O[C@@H](CN)[C@@H](O)[C@H](O)[C@H]1N
Staphylococcus aureus [1]
  MIC: 2 µg/mL (≈ 2.27 µM)
Staphylococcus aureus [2]
  MIC: 2 µg/mL (≈ 2.27 µM)
Escherichia coli
  MIC: 4 µg/mL (≈ 4.54 µM)
Enterococcus faecalis
  MIC: 8 µg/mL (≈ 9.09 µM)
Pseudomonas aeruginosa
  MIC: 8 µg/mL (≈ 9.09 µM)
Fusarium graminearum [3]
  MIC: 125 µg/mL (≈ 142 µM)
[4]
  IC90 at 1 h: > 1000 µg/mL

## NC[C@@H]1O[C@H](O[C@H]2[C@@H](O)[C@H](O[C@@H]3[C@@H](O)[C@H](N)C[C@H](N)[C@H]3O[C@H]3O[C@H](CN)[C@@H](O)[C@H](O)[C@H]3N)O[C@@H]2CNC(=O)c2cc(-c3ccccc3)nc3ccccc23)[C@H](N)[C@@H](O)[C@@H]1O
Staphylococcus aureus [1]
  MIC: 4 µg/mL (≈ 4.73 µM)
Escherichia coli
  MIC: 8 µg/mL (≈ 9.47 µM)

## CCCCCCCCCCCC(=O)NC[C@H]1O[C@@H](O[C@@H]2[C@@H](O)[C@H](N)C[C@H](N)[C@H]2O[C@H]2O[C@H](CN)[C@@H](O)[C@H](O)[C@H]2N)[C@H](O)[C@@H]1O[C@H]1O[C@@H](CN)[C@@H](O)[C@H](O)[C@H]1N
Staphylococcus aureus [1]
  MIC: 8 µg/mL (≈ 10.1 µM)
Staphylococcus aureus [2]
  MIC: 16 µg/mL (≈ 20.1 µM)
Escherichia coli
  MIC: 16 µg/mL (≈ 20.1 µM)
Enterococcus faecalis
  MIC: 64 µg/mL (≈ 80.4 µM)
Pseudomonas aeruginosa
  MIC: 16 µg/mL (≈ 20.1 µM)

## NCC[C@H](O)C(=O)N[C@@H]1C[C@H](N)[C@@H](O[C@H]2O[C@H](CN)[C@@H](O)[C@H](O)[C@H]2O)[C@H](O)[C@H]1O[C@H]1O[C@H](CO)[C@@H](O)[C@H](N)[C@H]1O [AMIKACIN]
Staphylococcus aureus [1]
  MIC: 1 µg/mL (≈ 1.71 µM)
Staphylococcus aureus [2]
  MIC: 8 µg/mL (≈ 13.7 µM)
Escherichia coli
  MIC: 1 µg/mL (≈ 1.71 µM)
Enterococcus faecalis
  MIC: ≥ 250 µg/mL
Pseudomonas aeruginosa
  MIC: 0.5 µg/mL (≈ 0.854 µM)

## NC[C@H]1O[C@H](O[C@H]2[C@H](O)[C@@H](O[C@H]3O[C@H](CO)[C@@H](O)[C@H](N)[C@H]3O)[C@H](N)C[C@@H]2N)[C@H](N)[C@@H](O)[C@@H]1O [BEKANAMYCIN]
Fusarium graminearum [5]
  MIC: > 250 µg/mL

## NC[C@@H]1O[C@H](O[C@H]2[C@@H](O)[C@H](O[C@@H]3[C@@H](O)[C@H](N)C[C@H](N)[C@H]3O[C@H]3O[C@H](CN)[C@@H](O)[C@H](O)[C@H]3N)O[C@@H]2CO)[C@H](N)[C@@H](O)[C@@H]1O [FRAMYCETIN]
Staphylococcus aureus [1]
  MIC: 1 µg/mL (≈ 1.63 µM)
Staphylococcus aureus [2]
  MIC: 125 µg/mL (≈ 203 µM)
Escherichia coli
  MIC: 4 µg/mL (≈ 6.51 µM)
Enterococcus faecalis
  MIC: ≥ 250 µg/mL
Pseudomonas aeruginosa
  MIC: 64 µg/mL (≈ 104 µM)
Fusarium graminearum [3]
  MIC: 62.5 µg/mL (≈ 102 µM)

## NC[C@@H]1O[C@@H](O[C@H]2[C@H](O)[C@@H](O[C@H]3O[C@H](CO)[C@@H](O)[C@H](N)[C@H]3O)[C@H](N)C[C@@H]2N)[C@@H](O)[C@H](O)[C@H]1O [KANAMYCIN A]
Fusarium graminearum [3]
  MIC: > 500 µg/mL

## CC1(C)CCC(Cc2ccc(Cl)cc2)C1(O)Cn1cncn1 (configuration not stated) [METCONAZOLE]
Botrytis cinerea
  MIC: 7.8 µg/mL (≈ 24.4 µM)
Fusarium graminearum [5]
  MIC: 3.9 µg/mL (≈ 12.2 µM)
Rhodotorula mucilaginosa
  MIC: 15.6 µg/mL (≈ 48.8 µM)

## CN[C@H](CC(C)C)C(=O)N[C@H]1C(=O)N[C@@H](CC(N)=O)C(=O)N[C@H]2C(=O)N[C@H]3C(=O)N[C@H](C(=O)N[C@H](C(=O)O)c4cc(O)cc(O)c4-c4cc3ccc4O)[C@H](O)c3ccc(c(Cl)c3)Oc3cc2cc(c3O[C@@H]2O[C@H](CO)[C@@H](O)[C@H](O)[C@H]2O[C@H]2C[C@](C)(N)[C@H](O)[C@H](C)O2)Oc2ccc(cc2Cl)[C@H]1O [VANCOMYCIN]
Escherichia coli
  MIC: 125 µg/mL (≈ 86.3 µM)
Enterococcus faecalis
  MIC: 250 µg/mL (≈ 173 µM)
Pseudomonas aeruginosa
  MIC: ≥ 250 µg/mL
